Our source for the IC50 and EC50 values is BindingDB's records for doi:10.1016/0960-894X(95)00417-R (1995).

The nature of assay [1]: Tested in vitro for receptor binding affinity to 5-hydroxytryptamine 1D receptor in bovine caudate using [3H]5-HT radioligand.
The nature of assay [2]: Compound was tested for the inhibition of forskolin-stimulated adenylate cyclase at 5-hydroxytryptamine 1A receptor in guinea pig.

With `CN1CCC[C@@H]1Cc1c[nH]c2ccc(-n3cnc4cc(C#N)ccc43)cc12` [CP-161242], the IC50 in assay [1] came out at 0.0013 µM. Besides, the response in assay [2] was half-maximal at 0.026 µM (EC50).

In assay [1], `CN(C)CCc1c[nH]c2ccc(-n3cnc4cccnc43)cc12` [[2-(5-Imidazo[4,5-b]pyridin-3-yl-1H-indol-3-yl)-ethyl]-dimethyl-amine] returned a concentration for half-maximal inhibition (IC50) of 0.011 µM. Moreover, the EC50 in assay [2] came to 0.46 µM.

As usually defined, the IC50 is the concentration needed to halve the response being measured. The low end stands for higher potency, the high end for lower potency. The term EC50 denotes the concentration at which the effect is half-maximal. Low values mean higher potency in that assay, high ones lower potency in that assay.
